Tests used:
Type in all cases: in vivo
[1] = system: Thrips tabaci (Onion Thrips); assay: Thrips tabaci sunflower leaf disc spray test; settings: foliar, 168 h, 200 ppm spray on sunflower leaf discs, population of mixed ages, mortality after 7 days
Text: (§1) Cotton leaf discs were placed on agar in a 24-well microtiter plate and sprayed with test solutions at an application rate of 200 ppm. After drying, the leaf discs were infested with 5 to L1 larvae. The samples were checked for mortality, feeding behavior, and growth regulation 3 days after treatment (DAT). The following compounds gave at least 80% control of Spodoptera littoralis: A1, A2, A3, A4, A6, A9, A10, A11, A12, A13, A14, A15, A16, A19, A20, A22, A23, A25, A26, A27, B1, B2, B3, B5, B6, B7, B8, B9, B11, B12, B13, B15, B16, B18, B19, B20, B21, B22, B24, B26, B27, B28, C1, C2, C3, C4, C5, C6, C7, C8, C9, C10, C12, C13, C16, C19, C20, C21, C22, C23, D1, D2, D3, D4, D5, D6, D7, D8, D9, D10, D11, D12, D13, D14, D15, D16, D17, D18, D19, D20, D21, D22, D23, D24. Heliothis virescens (Tobacco Budworm): Eggs (0-24 h old) were placed in 24-well microtiter plate on artificial diet and treated with test solutions at an application rate of 200 ppm (concentration in well 18 ppm) by pipetting. After an incubation period of 4 days, samples were checked for egg mortality, larval mortality, and growth regulation. The following compounds gave at least 80% control of Heliothis virescens: A1, A2, A3, A4, A13, A15, A17, A19, A20, A22, A23, A25, A26, A28, B1, B2, B3, B5, B6, B7, B9, B11, B13, B15, B18, B19, B20, B21, B25, B26, B27, B28, C1, C2, C3, C4, C5, C6, C7, C8, C9, C10, C12, C14, C16, C17, C19, C20, C21, C22, D1, D2, D3, D4, D5, D6, D7, D8, D9, D10, D11, D12, D13, D14, D15, D16, D17, D18, D19, D20, D21, D22, D23, E1, E2, E3, E4, E5. Plutella xylostella (Diamond Back Moth): 24-well microtiter plate (MTP) with artificial diet was treated with test solutions at an application rate of 200 ppm (concentration in well 18 ppm) by pipetting. After drying, the MTP's were infested with L2 larvae (7-12 per well). After an incubation period of 6 days, samples were checked for larval mortality and growth regulation. The following compounds gave at least 80% control of Plutella xylostella: A1, A3, A4, A10, All, A15, A19, A23, A25, B1, B2, B3, B5, B6, B7, B8, B9, B11, B13, B15, B18, B19, B20, B21, B26, B27, B28, C1, C2, C3, C4, C6, C7, C8, C9, C12, C16, C19, C20, C22, D1, D2, D3, D4, D5, D6, D7, D8, D9, D10, D12, D13, D14, D15, D16, D17, D18, D19, D20, D21, D22, D23, E1, E3, E5. Diabrotica balteata (Corn Root Worm): A 24-well microtiter plate (MTP) with artificial diet was treated with test solutions at an application rate of 200 ppm (concentration in well 18 ppm) by pipetting. After drying, the MTP's were infested with L2 larvae (6-10 per well). After an incubation period of 5 days, samples were checked for larval mortality and growth regulation. The following compounds gave at least 80% control of Diabrotica balteata: A2, A3, A4, A9, A11, A12, A13, A14, A15, A17, A19, A21, A22, A23, A24, A25, A26, B1, B2, B3, B6, B7, B8, B11, B13, B14, B15, B18, B19, B20, B21, B22, B26, B28, C1, C2, C3, C4, C5, C6, C7, C8, C9, C10, C12, C14, C15, C16, C19, C20, C21, C22, C23, C26, D1, D2, D4, D5, D6, D7, D8, D9, D10, D12, D14, D15, D16, D17, D18, D19, D20, D21, D22, D23, E2, E3, E5. Thrips tabaci (Onion Thrips): Sunflower leaf discs were placed on agar in a 24-well microtiter plate and sprayed with test solutions at an application rate of 200 ppm. After drying, the leaf discs were infested with an […] population of mixed ages. After an incubation period of 7 days, samples were checked for mortality. The following compounds gave at least 80% control of Thrips tabaci: B1, B7, B11, B15, B18, B19, B28, D1, D2, D3, D4, D5, D6, D7, D8, D9, D10, D12, D16, D18, D19, D20, D21, D23. Tetranychus urticae (Two-Spotted Spider Mite): Bean leaf discs on agar in 24-well microtiter plates were sprayed with test solutions at an application rate of 200 ppm. After drying, the leaf discs are infested with mite populations of mixed ages. 8 days later, discs are checked for egg mortality, larval mortality, and adult mortality. […]

[2] = system: Plutella xylostella (Diamond Back Moth); assay: Plutella xylostella larvae test on artificial diet; settings: 144 h, 200 ppm (concentration in well 18 ppm), L2 larvae, larval mortality and growth regulation after 6 days
Text: as §1

[3] = system: Spodoptera littoralis (Egyptian Cotton Leafworm); assay: Spodoptera littoralis cotton leaf disc spray test; settings: foliar, 72 h, 200 ppm spray on cotton leaf discs, L1 larvae, mortality, feeding behavior, growth regulation 3 DAT
Text: as §1

[4] = system: Tetranychus urticae (Two-Spotted Spider Mite); assay: Tetranychus urticae bean leaf disc spray test; settings: foliar, 192 h, 200 ppm spray on bean leaf discs, mite populations of mixed ages, egg, larval and adult mortality 8 days later
Text: as §1

[5] = system: Diabrotica balteata (Corn Root Worm); assay: Diabrotica balteata larvae test on artificial diet; settings: 120 h, 200 ppm (concentration in well 18 ppm), L2 larvae, larval mortality and growth regulation after 5 days
Text: as §1

[6] = system: Heliothis virescens (Tobacco Budworm); assay: Heliothis virescens egg test on artificial diet; settings: 96 h, 200 ppm (concentration in well 18 ppm), eggs 0-24 h old on artificial diet, egg mortality, larval mortality, growth regulation after 4 days
Text: as §1

Measured: pest or weed control at 200 ppm

N#Cc1ccc(C2=NOC(c3cc(Cl)cc(Cl)c3)(C(F)(F)F)C2)cc1NC(=O)c1ccccc1Cl (stereo not drawn) [D7]
≥ 80%: all assays above

N#Cc1ccc(C(=O)Nc2cc(C3=NOC(c4cc(Cl)cc(Cl)c4)(C(F)(F)F)C3)ccc2C#N)cc1 (stereo not drawn) [D1]
≥ 80%: all assays above

Cc1ccc(C(=O)Nc2cc(C3=NOC(c4cc(Cl)cc(Cl)c4)(C(F)(F)F)C3)ccc2C#N)cc1 (stereo not drawn) [D9]
≥ 80%: all assays above

N#Cc1ccc(C2=NOC(c3cc(Cl)cc(Cl)c3)(C(F)(F)F)C2)cc1NC(=O)c1ccc(F)cc1 (stereo not drawn) [D18]
≥ 80%: all assays above

Cc1ccccc1C(=O)Nc1cc(C2=NOC(c3cc(Cl)cc(Cl)c3)(C(F)(F)F)C2)ccc1C#N (stereo not drawn) [D6]
≥ 80%: all assays above
